Data taken from patent US8754056B2, “Enhancing vessel lesion homing and repair potential of stem cells” (University of Florida Research Foundation, Inc., priority 2008, dated 2014).
[PMO-N] = phosphorodiamidate morpholino subunit (N: the base)

Columns and labels:
[1] = test system: human peripheral blood-derived CD34+ cells; experiment: NO production by DAF-FM fluorescence imaging; assay type: cell-based; conditions: for NO-release by SDF-1 in anti-TGFβ-PMO treated cells with inhibitor / NO generation in response to SDF-1 after PMO treatment: diabetic CD34+ cells; for NO generation in response to SDF-1 after PMO treatment / NO-release in response to SDF-1 after PMO pre-treatment: PMO 40 μg/mL; for NO-release in response to SDF-1 after PMO pre-treatment: n=3
Procedure: Human CD34^+ EPCs were incubated overnight with either control-PMO or anti-TGF-β-PMO at a concentration of 40 μg/mL. NO production was quantified in human peripheral blood-derived CD34^+ cells using NO-sensitive cell-permeant fluorescent dye DAF-FM. CD34^+ EPCs were loaded with 20 μM DAF-FM diacetate (Invitrogen) in 500 μl, of DPBS (MediaTech. Inc.) with glucose (1 mg/mL) and L-arginine (1 mM). […] Pharmacological inhibitors were added 30 min before the addition of DAF-FM. […] Cells were washed (4×) and 75 μL of cell suspension was placed in the coverslip-bottomed dish for fluorescence imaging. Fluorescent images were obtained using a computer-controlled monochromator excitation light source (TILL Polychrome II, TILL-Photonics, Martinsried, Germany) and a cooled CCD camera with exposure control (SensiCam, Till-photonics). During excitation at 488 nm with 50 ms of exposure time, emission at 510 nm was collected by the camera at 2×2 binning and images were acquired by Till-Vision software (Till Photonics, Martinsried, Germany). Images were corrected for background and maximum fluorescence intensity in individual cells was quantified in terms of arbitrary fluorescence units using Till-Vision software. Changes in fluorescence with different treatments were expressed as percent change with respect to cells that were used as time/vehicle control i.e. cells received no treatments but loaded with DAF-FM. Up to 75 numbers of cells were imaged per sample/donor and ‘n’ denotes number of donors used.

[2] = test system: CD34+ EPCs; experiment: Modified Boyden chamber migration to SDF-1 after PMO treatment; assay type: cell-based, human; conditions: SDF-1 100 nM
[3] = test system: CXCR7; experiment: Real-time PCR of CXCR7 mRNA in CD34+ EPCs; assay type: cell-based, human; conditions: non-diabetic CD34+ cells, P<0.001
Procedure: (§1) Total mRNA from CD34 cells was isolated by using the Total RNA Mini Kit (Bio-Rad, Hercules, Calif.). The mRNA was transcribed by using an iScript cDNA Synthesis Kit (BioRad), and real-time PCR was performed using primers for CXCR4, CXCR7, or beta actin as per manufacturer's instructions (Ambion, Austin, Tex.). Real-time PCR was performed on 7500 Fast Real-Time PCR system for 40 cycles and all reactions were performed in triplicate.

[4] = test system: CXCR4; experiment: Real-time PCR of CXCR4 mRNA in CD34+ EPCs; assay type: cell-based, human; conditions: normalized to β-actin
Procedure: as §1

[5] = test system: human CD34+ EPCs; experiment: Retinal ischemia-reperfusion injury model, incorporation of injected human CD34+ EPCs; assay type: in vivo, mice; conditions: for repair of acellular capillaries: diabetic CD34+ cells
Procedure: Mice (n=20) were kept under inhalation anaesthesia (isoflurane vapor) during induction of ischemia. The anterior chamber of the eye was cannulated with a 30-gauge needle attached to an infusion line of sterile saline, and the eye was subjected to 2 h of hydrostatic pressure (80-90 mmHg, measured by TonoPen; Medtronic Solan, Jacksonville, Fla.). […] The contralateral eye served as a control.
Seven days after the insult, at which time retinal capillary damage was appreciable,^14,15 the animals were injected intravitreally with isolated human CD34^+ EPCs pre-treated with either […] or control-PMO. After 48 h the animals were euthanized, the eyes were enucleated and the neural retinas were isolated by dissection. The retinas were permeabilized as described above, and reacted with rhodamine-conjugated R. communis agglutinin I. To assess the location of the injected human CD34^+ EPCs, retinas were further incubated with mouse monoclonal anti-human nuclear antigen (Chemicon) followed by secondary staining with FITC-conjugated goat-anti-mouse IgG antibodies (Chemicon). Confocal images of six random fields were taken and fluorescence intensity in each 100 μm^2 was analysed using ImageJ software. Appropriate non-immune antibodies, as well as incubation without primary antibody, were used to determine background and non-specific antibody binding.

[6] = test system: human CD34+ cells; experiment: Survival in the absence of growth factors and later proliferation of CD34+ cells; assay type: cell-based
Procedure: Two discrete cord blood stem cell populations, lin^−CD34^+CD38^+ (FIG. 5A) or lin^−CD34^+CD38^− (FIG. 5B), in addition to lin^−CD34^+ cells from peripheral blood and bone marrow (FIG. 6A) were either treated with PMO containing medium or not. After 5 days, all cells received growth factors (Tpo, SCF, IL-3, IL-6) to detect live, growth factor responsive cells and their proliferative potential after 14 days was determined. By day 14, cells exposed to 20-300 μg/mL of anti-TGF-β-PMO typically formed macro colonies (>100,000 cells) after the addition of growth factors (FIG. 5).
Human cord blood and bone marrow CD34^+ EPCs were purchased from AllCells (Emeryville, Calif.) as positively selected lin^−, magnetic bead-purified frozen cell populations that were >95% CD34^+ cells by FACS analysis. Cells were thawed in a 37° C. water bath, diluted in excess IMDM 10% FBS, pelleted by centrifugation (300×g for 10 min), washed by centrifugation one additional time and, finally, counted using a hemocytometer. Viability, as determined by trypan blue dye exclusion, was routinely >95% after thaw and washes.
Further purification was carried out prior to survival and proliferation studies. Cells were adjusted to 5×10^5/mL in phosphate-buffered saline (PBS) containing 2% (v/v) fetal bovine serum (FBS) and incubated with single murine antibody controls and murine anti-CD34-PE, anti-CD45-PE-Cy5 and anti-CD38-APC. Just prior to cell sorting, propidium iodide (2 μg/mL) was added to detect non-viable cells. CD34^+, CD45^mid cells (HSCs are CD45^mid expressing and can be clearly separated from contaminating lymphocytes, which are CD45^high expressing) and CD38^+/− cells were directly sorted into 96-well round bottom plates (10±2 cells/well) containing IMDM, 10% horse serum, 10% FBS, 100 units/mL of penicillin, 10 μg/mL streptomycin, 20 mM 1-glutamine and 1 μM hydrocortisone±PMOs. At day 5, a hematopoietic growth factor cocktail (Hgf-cocktail) consisting of 20 ng/mL thrombopoietin, 50 ng/mL stem cell factor, 50 ng/mL interleukin-3 and 20 ng/mL interleukin-6, all purchased from PeproTech, N.J., was added to the wells. Cells were followed by daily direct light microscopy (×200) to assess cell proliferation. Cells that proliferated in response to growth factors were scored as cells that survived after the 5-day period in the absence of growth factors. […]
CD34^+ EPCs were isolated from cord blood, human bone marrow and peripheral blood as described above and sorted 10 cells per well in a 96 well plate in either the presence or absence of growth factors and in presence or absence of anti-TGFβ-PMO. […] This incubation period was previously determined by measuring the uptake of fluorescein isothyocyanate (FITC)-labelled PMOs in HSCs.

[7] = test system: Normal MPB CD34+CD45+; experiment: Surface antigen expression after PMO treatment, normal cells; assay type: cell-based, human
[8] = test system: murine HSCs; experiment: CNV laser injury model, homing of adoptively transferred GFP+ murine HSCs; assay type: in vivo, mice; conditions: overnight pre-treatment of HSCs, vs control-PMO (p<0.05) or medium alone
[9] = test system: Diabetic PB CD34+CD45+; experiment: Surface antigen expression after PMO treatment, diabetic cells; assay type: cell-based, human
[10] = non-diabetic (normal) CD34+ EPCs

| Molecule | CXCR4 mRNA expression ([4]; diabetic CD34+ cells) | CXCR4 mRNA expression [4, 10] | repair of acellular capillaries [5] | NO generation in response to SDF-1 after PMO treatment ([1]; n=4) [%] | NO-release in response to SDF-1 after PMO pre-treatment ([1]; non-diabetic CD34+ cells) [%] | CD14 % of cells [7] | CD38 % of cells [7] | CD105 % of cells [7] | CXCR4 % of cells [7] | VEGFR-2 % of cells [7] | CD14 % of cells [9] | CD38 % of cells [9] | CD105 % of cells [9] | CXCR4 % of cells [9] | VEGFR-2 % of cells [9] | also measured |
| --- | --- | --- | --- | --- | --- | --- | --- | --- | --- | --- | --- | --- | --- | --- | --- | --- |
| c1cc(CN2CCCNCCNCCCNCC2)ccc1CN1CCCNCCNCCCNCC1 [AMD3100] |  |  |  |  |  |  |  |  |  |  |  |  |  |  |  | NO-release by SDF-1 in anti-TGFβ-PMO treated cells with inhibitor ([1]; inhibitor 10 μM): 28±2%; NO release by SDF-1 after inhibitor pre-treatment ([1]; non-diabetic CD34+ cells, SDF-1 100 nM, inhibitor 10 μM): 3±2% |
| O=c1cc(N2CCOCC2)oc2c(-c3ccccc3)cccc12 [LY294002] |  |  |  |  |  |  |  |  |  |  |  |  |  |  |  | NO release by SDF-1 after inhibitor pre-treatment ([1]; non-diabetic CD34+ cells, SDF-1 100 nM, inhibitor 20 μM): 12±3% |
| SDF-1: the principal stem/progenitor cell homing factor, used as chemotaxis effector and NO release stimulus |  |  |  |  |  |  |  |  |  |  |  |  |  |  |  | increase in NO generation vs time-control ([1]; non-diabetic CD34+ cells, SDF-1 100 nM, n=4): 45±4% |
| anti-TGF-β-PMO: phosphorodiamidate morpholino antisense oligomer, 5′ GAG GGC GGC ATG III GAG GC 3′ (SEQ ID NO: 2), AVI BioPharma sequence ID#0-1-01067 (antisense GAGGGCGGCATGNNNGAGGC; all [PMO-N], the base at N not given here; further chemistry not fully specified) | significantly increased | down-regulation | robust reparative response | 69±7 | 54±4 | 73.3 % of cells | 82.3 % of cells | 62.9 % of cells | 85.3 % of cells | 56.5 % of cells | 62.4 % of cells | 94.2 % of cells | 51.7 % of cells | 72.7 % of cells | 62.4 % of cells | migration to SDF-1 vs control-PMO ([2]; diabetic CD34+ EPCs, P<0.05): enhanced migration; migration to SDF-1 vs control-PMO ([2]; non-diabetic CD34+ EPCs, P<0.01): enhanced migration; CXCR7 mRNA expression [3]: increased; increase in incorporation of cells to injured retinal capillaries vs control-PMO ([5]; FITC immunoreactivity per 100 μm^2 area, P<0.001): 2.5 fold; homing to areas of ischemic injury ([5]; pre-treated EPCs injected intravitreally, vs control-PMO): profound homing; cell survival ([6]; 40 μg/mL, compared with other concentrations): greatest cell survival; proliferation vs control-PMO ([6]; BM-derived cells): increased proliferation; macro colony size by day 14 after addition of growth factors ([6]; cord blood cells, 20-300 μg/mL, growth factors added after 5 days): > 100,000 cells; proliferation vs control-PMO ([6]; peripheral blood CD34+ cells from diabetics and age- and sex-matched controls): enhanced proliferation; numbers of GFP+ HSCs recruited to the laser injury site [8]: substantial increase |
| control-PMO: control morpholino oligomer, 5′ CGTTCTGATAGCTGTACCTC 3′ (SEQ ID NO: 1), AVI BioPharma sequence ID#0-1-0-555 (antisense CGTTCTGATAGCTGTACCTC; all phosphorodiamidate morpholino (PMO)) [reference compound] | not changed | increased | essentially no repair | 9.2 | 60±5 | 69.3 % of cells | 79.9 % of cells | 71.0 % of cells | 88.5 % of cells | 62.9 % of cells | 59.3 % of cells | 92.2 % of cells | 58.8 % of cells | 74.1 % of cells | 59.3 % of cells |  |
| pertussis toxin |  |  |  |  |  |  |  |  |  |  |  |  |  |  |  | NO-release by SDF-1 in anti-TGFβ-PMO treated cells with inhibitor ([1]; inhibitor 100 ng/mL): 16±3%; NO release by SDF-1 after inhibitor pre-treatment ([1]; non-diabetic CD34+ cells, SDF-1 100 nM, inhibitor 100 ng/ml): 20±9% |
